Consider twelve molecules from EP4603105A1, “PHARMACEUTICAL COMPOSITION CONTAINING CYCLIC COMPOUND HAVING SELECTIVE KRAS INHIBITORY EFFECT AGAINST HRAS AND NRAS” (CHUGAI SEIYAKU KABUSHIKI KAISHA, priority 2022, dated 2024).

Test [1] concerns the target GDP-bound NRAS wild-type protein (Homo sapiens, UniProt P01111). The test is described as follows: Binding to NRAS by surface plasmon resonance (SPR), KD and KD ratio to KRAS. The conditions noted are these: ratio of the KD value with respect to GDP-bound NRAS wild-type protein to the KD value with respect to KRAS. Put shortly:
(§1)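 SPR, 30°C: Avi-biotin RAS·GDP captured via Biotin CAPture (~100–300 RU); running buffer HBS pH 7.4, 1 mM DTT, 10 mM MgCl2, 0.01% Tween 20, 10 µM GDP, 4% DMSO. Single-cycle kinetics, 100 µL/min, 75 s injections; 1:1 model → KD.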

The target in the next test is HRAS wild-type protein (Homo sapiens, UniProt P01112). The test is described as follows: Binding to HRAS by surface plasmon resonance (SPR), KD and KD ratio to KRAS. The note with it: ratio of the KD value with respect to HRAS wild-type protein to the KD value with respect to KRAS. Put shortly: as §1
Sequence of HRAS wild-type protein (P01112 whole entry): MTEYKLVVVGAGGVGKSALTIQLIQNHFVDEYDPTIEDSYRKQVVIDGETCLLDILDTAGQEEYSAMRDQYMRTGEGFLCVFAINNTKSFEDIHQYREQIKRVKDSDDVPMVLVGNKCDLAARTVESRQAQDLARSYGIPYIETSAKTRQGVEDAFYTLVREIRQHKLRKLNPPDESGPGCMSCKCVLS
The test system of test [2] is human lung cancer strain NCI-H441. Type of test: cell-based. Put shortly: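 Proliferation was scored by […] measured after the reagent was added to cultures kept at 37°C in 5% carbon dioxide.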

Sequence of GDP-bound NRAS wild-type protein (P01111 whole entry): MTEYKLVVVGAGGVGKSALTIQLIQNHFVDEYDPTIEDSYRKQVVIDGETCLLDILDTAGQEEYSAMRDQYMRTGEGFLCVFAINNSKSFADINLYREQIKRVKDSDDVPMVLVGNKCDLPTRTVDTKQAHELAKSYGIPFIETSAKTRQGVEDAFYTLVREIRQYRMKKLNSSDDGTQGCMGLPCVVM

`CCO[C@@H]1C[C@H]2C(=O)NC3(CC(C)(C)C3)C(=O)N(C)[C@@H](C(CC)CC)C(=O)N(C)[C@H](C(=O)N(C)C)CC(=O)N(C)[C@@H](CC3CCC3)C(=O)N[C@@H]([C@@H](C)CC)C(=O)N(C)CC(=O)N(C)[C@H]3C/C=C\CCN(C3=O)[C@@H](Cc3ccc(C(F)(F)F)cc3)C(=O)N(C)CC(=O)N[C@@H](CCc3ccc(C(F)(F)F)c(OC)c3)C(=O)N2C1` [PP2164]: in test [1], the “NRAS /KRAS” value was “A (a compound having 10 or more and less than 20 is denoted as A)”. The “HRAS /KRAS” value at HRAS wild-type protein was “A (a compound having 10 or more and less than 20 is denoted as A)”. Besides, the 50% inhibitory concentration (IC50) in test [2] was 14.2 nM.
On to `CCO[C@@H]1C[C@H]2C(=O)NC3(CC(C)(C)C3)C(=O)N(C)[C@@H](C(CC)CC)C(=O)N(C)[C@H](C(=O)N(C)C)CC(=O)N(C)[C@@H](C(C)C)C(=O)N[C@@H]([C@@H](C)CC)C(=O)N(C)CC(=O)N(C)[C@H]3C/C=C\CCN(C3=O)[C@@H](Cc3ccc(C(F)(F)F)cc3)C(=O)N(C)CC(=O)N[C@@H](CCc3ccc(C(F)(F)F)c(OC)c3)C(=O)N2C1` [PP2165], for which the “NRAS /KRAS” value in test [1] was “A (a compound having 10 or more and less than 20 is denoted as A)”. In addition, on HRAS wild-type protein, the “HRAS /KRAS” value was “A (a compound having 10 or more and less than 20 is denoted as A)”. The IC50 in test [2] was found to be 17.5 nM.
Regarding `CCO[C@@H]1C[C@H]2C(=O)NC3(CC(C)(C)C3)C(=O)N(C)[C@@H](C(CC)CC)C(=O)N(C)[C@H](C(=O)N(C)C)CC(=O)N(C)[C@@H](CC3CC3)C(=O)N[C@@H]([C@@H](C)CC)C(=O)N(C)CC(=O)N(C)[C@H]3C/C=C\CCN(C3=O)[C@@H](Cc3ccc(C)cc3)C(=O)N(C)CC(=O)N[C@@H](CCc3ccc(C(F)(F)F)c(OC)c3)C(=O)N2C1` [PP2166], the “NRAS /KRAS” value in test [1] was “A (a compound having 10 or more and less than 20 is denoted as A)”. For the same molecule, at HRAS wild-type protein, the “HRAS /KRAS” value was “A (a compound having 10 or more and less than 20 is denoted as A)”. In test [2], this molecule had a 50% inhibitory concentration (IC50) of 23.7 nM.
On to `CCO[C@@H]1C[C@H]2C(=O)NC3(CC(C)(C)C3)C(=O)N(C)[C@@H](C(CC)CC)C(=O)N(C)[C@H](C(=O)N3CCCC3)CC(=O)N(C)[C@@H](COC)C(=O)N[C@@H]([C@@H](C)CC)C(=O)N(C)CC(=O)N(C)[C@H]3C/C=C\CCN(C3=O)[C@@H](Cc3ccc(C)cc3)C(=O)N(C)CC(=O)N[C@@H](CCc3ccc(C(F)(F)F)c(OC)c3)C(=O)N2C1` [PP2167], for which the “NRAS /KRAS” value in test [1] is “AA (a compound having 20 or more is denoted as AA)”. At HRAS wild-type protein, the “HRAS /KRAS” value was “A (a compound having 10 or more and less than 20 is denoted as A)”. This molecule yielded an IC50 in test [2] of 39.1 nM.
As to `CCO[C@@H]1C[C@H]2C(=O)NC3(CC(C)(C)C3)C(=O)N(C)[C@@H](C(CC)CC)C(=O)N(C)[C@H](C(=O)N(C)C)CC(=O)N(C)[C@@H](CC(C)C)C(=O)N[C@@H]([C@@H](C)CC)C(=O)N(C)CC(=O)N(C)[C@H]3C/C=C\CCN(C3=O)[C@@H](Cc3ccc(C)cc3)C(=O)N(C)CC(=O)N[C@@H](CCc3ccc(C(F)(F)F)c(OC)c3)C(=O)N2C1` [PP2168], the “NRAS /KRAS” value in test [1] is “A (a compound having 10 or more and less than 20 is denoted as A)”. Also, the “HRAS /KRAS” value on HRAS wild-type protein was “A (a compound having 10 or more and less than 20 is denoted as A)”. Besides, half-maximal inhibition in test [2] (IC50) was put at 16.9 nM.
As to `CCO[C@@H]1C[C@H]2C(=O)NC3(CC(C)(C)C3)C(=O)N(C)[C@@H](C(CC)CC)C(=O)N(C)[C@H](C(=O)N3CCCC3)CC(=O)N(C)[C@@H](C)C(=O)N[C@@H]([C@@H](C)CC)C(=O)N(C)CC(=O)N(C)[C@H]3C/C=C\CCN(C3=O)[C@@H](Cc3ccc(C)cc3)C(=O)N(C)CC(=O)N[C@@H](CCc3ccc(C(F)(F)F)c(OC)c3)C(=O)N2C1` [PP2169], the “NRAS /KRAS” value in test [1] was “AA (a compound having 20 or more is denoted as AA)”. Also, on HRAS wild-type protein, the “HRAS /KRAS” value is “A (a compound having 10 or more and less than 20 is denoted as A)”. In test [2], this molecule displayed a 50% inhibitory concentration (IC50) of 62.1 nM.
In the case of `CCO[C@@H]1C[C@H]2C(=O)NC3(CC(C)(C)C3)C(=O)N(C)[C@@H](C(CC)CC)C(=O)N(C)[C@H](C(=O)N(C)C)CC(=O)N(C)[C@@H](CC)C(=O)N[C@@H]([C@@H](C)CC)C(=O)N(C)CC(=O)N(C)[C@H]3C/C=C\CCN(C3=O)[C@@H](Cc3ccc(C)cc3)C(=O)N(C)CC(=O)N[C@@H](CCc3ccc(C(F)(F)F)c(OC)c3)C(=O)N2C1` [PP2170], in test [1], the “NRAS /KRAS” value was “A (a compound having 10 or more and less than 20 is denoted as A)”. In addition, at HRAS wild-type protein, the “HRAS /KRAS” value was “A (a compound having 10 or more and less than 20 is denoted as A)”. Also, in test [2], the IC50 is 8.5 nM.
For the molecule `CCO[C@@H]1C[C@H]2C(=O)NC3(CC(C)(C)C3)C(=O)N(C)[C@@H](C(CC)CC)C(=O)N(C)[C@H](C(=O)N3CCCC3)CC(=O)N(C)[C@@H](CC)C(=O)N[C@@H]([C@@H](C)CC)C(=O)N(C)CC(=O)N(C)[C@H]3C/C=C\CCN(C3=O)[C@@H](Cc3ccc(C)cc3)C(=O)N(C)CC(=O)N[C@@H](CCc3ccc(C(F)(F)F)c(OC)c3)C(=O)N2C1` [PP2171], in test [1], the “NRAS /KRAS” value was “A (a compound having 10 or more and less than 20 is denoted as A)”. Besides, the “HRAS /KRAS” value on HRAS wild-type protein is “A (a compound having 10 or more and less than 20 is denoted as A)”. This molecule showed an IC50 in test [2] of 19.6 nM.
In the case of `CCO[C@@H]1C[C@H]2C(=O)NC3(CC(C)(C)C3)C(=O)N(C)[C@@H](C(CC)CC)C(=O)N(C)[C@H](C(=O)N(C)C)CC(=O)N(C)[C@@H](CC3CCC3)C(=O)N[C@@H]([C@@H](C)CC)C(=O)N(C)CC(=O)N(C)[C@H]3C/C=C\CCN(C3=O)[C@@H](Cc3ccc(C)cc3)C(=O)N(C)CC(=O)N[C@@H](CCc3ccc(C(F)(F)F)c(OC)c3)C(=O)N2C1` [PP2172], the “NRAS /KRAS” value in test [1] is “A (a compound having 10 or more and less than 20 is denoted as A)”. Besides, the “HRAS /KRAS” value at HRAS wild-type protein was “B (a compound having 3 or more and less than 10 is denoted as B)”. 5.8 nM corresponded to half-maximal inhibition in test [2] (IC50).
Regarding `CCO[C@@H]1C[C@H]2C(=O)NC3(CC(C)(C)C3)C(=O)N(C)[C@@H](C(CC)CC)C(=O)N(C)[C@H](C(=O)N(C)C)CC(=O)N(C)[C@@H](C(C)C)C(=O)N[C@@H]([C@@H](C)CC)C(=O)N(C)CC(=O)N(C)[C@H]3C/C=C\CCN(C3=O)[C@@H](Cc3ccc(C)cc3)C(=O)N(C)CC(=O)N[C@@H](CCc3ccc(C(F)(F)F)c(OC)c3)C(=O)N2C1` [PP2173], in test [1], the “NRAS /KRAS” value is “A (a compound having 10 or more and less than 20 is denoted as A)”. Besides, on HRAS wild-type protein, the “HRAS /KRAS” value was “A (a compound having 10 or more and less than 20 is denoted as A)”. For the same molecule, in test [2], half-maximal inhibition (IC50) was put at 19.9 nM.
Regarding `CCO[C@@H]1C[C@H]2C(=O)NC3(CC(C)(C)C3)C(=O)N(C)[C@@H](C(CC)CC)C(=O)N(C)[C@H](C(=O)N3CCCC3)CC(=O)N(C)[C@@H](COC)C(=O)N[C@@H]([C@@H](C)CC)C(=O)N(C)CC(=O)N(C)[C@H]3C/C=C\CCN(C3=O)[C@@H](Cc3ccc(C(F)(F)F)cc3)C(=O)N(C)CC(=O)N[C@@H](CCc3ccc(Cl)c(Cl)c3)C(=O)N2C1` [PP2174], the “NRAS /KRAS” value in test [1] is recorded as “AA (a compound having 20 or more is denoted as AA)”. Further, the “HRAS /KRAS” value on HRAS wild-type protein was “A (a compound having 10 or more and less than 20 is denoted as A)”. Besides, the 50% inhibitory concentration (IC50) in test [2] was found to be 24 nM.
Take `CCO[C@@H]1C[C@H]2C(=O)NC3(CC(C)(C)C3)C(=O)N(C)[C@@H](C(CC)CC)C(=O)N(C)[C@H](C(=O)N(C)C)CC(=O)N(C)[C@@H](CC(C)C)C(=O)N[C@@H]([C@@H](C)CC)C(=O)N(C)CC(=O)N(C)[C@H]3C/C=C\CCN(C3=O)[C@@H](Cc3ccc(C(F)(F)F)cc3)C(=O)N(C)CC(=O)N[C@@H](CCc3ccc(Cl)c(Cl)c3)C(=O)N2C1` [PP2176]: the “NRAS /KRAS” value in test [1] is recorded as “AA (a compound having 20 or more is denoted as AA)”. Also, the “HRAS /KRAS” value on HRAS wild-type protein was “A (a compound having 10 or more and less than 20 is denoted as A)”. The molecule further came in with a 50% inhibitory concentration (IC50) in test [2] of 52.9 nM.
